Experimental data from PubChem BioAssay AID248 (DTP/NCI, 2004).
Toxic doses and inconclusive results are not listed. Cut-off read from the data, not from the text of the source: active = T/C of 150% or more; inactive = T/C below 125%. Peptide text beside a SMILES is read from it. * marks the point of attachment. Bz = O=C(c1ccccc1)*

Tested on: L1210 leukemia ip in BDF1 mice, survival T/C
Assay: NCI In Vivo Anticancer Drug Screen. Data for tumor model L1210 Leukemia (intraperitoneal) in B6D2F1 (BDF1) mice
Settings: endpoint: mean survival time, higher = longer survival
In short: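 Mice bearing the transplanted tumor received compound or vehicle. Survival of the treated group was divided by that of the vehicle-treated control group to give the ratio.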

[1] = dose: 100.0 mg/kg/injection, schedule: Q01DX001 (ip), vehicle: saline
[2] = dose: 200.0 mg/kg/injection, schedule: Q01DX001 (ip), vehicle: saline
[3] = dose: 400.0 mg/kg/injection, schedule: Q01DX001 (ip), vehicle: saline
[4] = dose: 200.0 mg/kg/injection, schedule: Q01DX001 (ip), vehicle: carboxymethylcellulose (CMC)
[5] = dose: 400.0 mg/kg/injection, schedule: Q01DX001 (ip), vehicle: carboxymethylcellulose (CMC)
[6] = dose: 100.0 mg/kg/injection, schedule: Q01DX001 (ip), vehicle: other
[7] = dose: 200.0 mg/kg/injection, schedule: Q01DX001 (ip), vehicle: other
[8] = dose: 100.0 mg/kg/injection, schedule: Q04DX002 (ip), vehicle: Klucel (hydroxypropylcellulose) (HPC)
[9] = dose: 200.0 mg/kg/injection, schedule: Q04DX002 (ip), vehicle: Klucel (hydroxypropylcellulose) (HPC)
[10] = dose: 400.0 mg/kg/injection, schedule: Q04DX002 (ip), vehicle: Klucel (hydroxypropylcellulose) (HPC)
[11] = dose: 100.0 mg/kg/injection, schedule: Q04DX003 (ip), vehicle: saline
[12] = dose: 200.0 mg/kg/injection, schedule: Q04DX003 (ip), vehicle: saline
[13] = dose: 400.0 mg/kg/injection, schedule: Q04DX003 (ip), vehicle: saline
[14] = dose: 100.0 mg/kg/injection, schedule: Q04DX003 (ip), vehicle: Klucel (hydroxypropylcellulose) (HPC)
[15] = dose: 200.0 mg/kg/injection, schedule: Q04DX003 (ip), vehicle: Klucel (hydroxypropylcellulose) (HPC)

Measured: T/C

CCCCCCCCCc1ccc(OC(C)OCCOCCOCC)cc1 (stereo not given)
inactive: dose: 100.0 mg/kg/injection, schedule: Q04DX002 (ip), vehicle: saline 97 % of control | dose: 200.0 mg/kg/injection, schedule: Q04DX002 (ip), vehicle: saline 100 % of control | dose: 400.0 mg/kg/injection, schedule: Q04DX002 (ip), vehicle: saline 105 % of control

COc1ccc(C2c3cc(OC)c(OC)c(S(N)(=O)=O)c3CC3C(=O)OCC32)cc1OC (stereo not given)
inactive: [1] 98 % of control | [2] 96 % of control | [3] 98 % of control

Cc1ccc2c([nH]1)c(C)cc1nc3ccccc3c12
inactive: dose: 50.0 mg/kg/injection, schedule: Q01DX001 (ip), vehicle: carboxymethylcellulose (CMC) 103 % of control | dose: 50.0 mg/kg/injection, schedule: Q01DX001 (ip), vehicle: saline 95 % of control | [1] 101 % of control | [4] 95 % of control | [2] 110 % of control | [5] 104 % of control | [3] 101 % of control

CCSSCC(NC(=O)OC(C)(C)C)C(=O)O (stereo not given)
inactive: dose: 50.0 mg/kg/injection, schedule: Q04DX003 (ip), vehicle: other 97 % of control | [6] 101 % of control | dose: 100.0 mg/kg/injection, schedule: Q04DX003 (ip), vehicle: other 94 % of control | [7] 97 % of control | dose: 200.0 mg/kg/injection, schedule: Q04DX003 (ip), vehicle: other 97 % of control

CSc1nc(-c2ccc([N+](=O)[O-])cc2)oc1/N=C/c1ccc([N+](=O)[O-])cc1
inactive: [8] 96 % of control | [9] 96 % of control | [10] 96 % of control

CCC1C(=O)OCc2c1cc(C(=O)OC)n(C)c2=O (stereo not given)
inactive: dose: 25.0 mg/kg/injection, schedule: Q01DX001 (ip), vehicle: other 111 % of control | dose: 50.0 mg/kg/injection, schedule: Q01DX001 (ip), vehicle: other 108 % of control | [6] 93 % of control | [7] 93 % of control

CNC(=O)CCC(=O)NC
inactive: dose: 75.0 mg/kg/injection, schedule: Q04DX003 (ip), vehicle: saline 95 % of control | [11] 100 % of control | dose: 150.0 mg/kg/injection, schedule: Q04DX003 (ip), vehicle: saline 98 % of control | [12] 102 % of control | dose: 300.0 mg/kg/injection, schedule: Q04DX003 (ip), vehicle: saline 95 % of control | [13] 111 % of control

c1ccc2c[n+](CCc3c[nH]c4ccccc34)ccc2c1
inactive: [8] 100 % of control | [14] 96 % of control | [15] 104 % of control

CC(C)=CCOC(N)=O
inactive: [14] 95 % of control | [15] 104 % of control | dose: 400.0 mg/kg/injection, schedule: Q04DX003 (ip), vehicle: Klucel (hydroxypropylcellulose) (HPC) 109 % of control

O=C(O)CCn1c(=O)n(CCC(=O)O)c(=O)n(CCC(=O)O)c1=O
inactive: [8] 100 % of control | [9] 93 % of control | [10] 86 % of control

COC(=O)CNC(=O)CNC(=O)c1ccccc1 (Bz-Gly-Gly-OMe)
inactive: dose: 100.0 mg/kg/injection, schedule: Q01DX009 (ip), vehicle: saline with Tween-80 89 % of control | dose: 200.0 mg/kg/injection, schedule: Q01DX009 (ip), vehicle: saline with Tween-80 87 % of control | dose: 400.0 mg/kg/injection, schedule: Q01DX009 (ip), vehicle: saline with Tween-80 87 % of control

CC(=O)OC(C)(/N=N/C(C)(OC(C)=O)c1ccc(Cl)cc1)c1ccc(Cl)cc1 (stereo not given)
inactive: dose: 25.0 mg/kg/injection, schedule: Q01DX009 (ip), vehicle: gum acacia 113 % of control | dose: 25.0 mg/kg/injection, schedule: Q04DX003 (ip), vehicle: gum acacia 98 % of control | dose: 50.0 mg/kg/injection, schedule: Q01DX009 (ip), vehicle: gum acacia 100 % of control | dose: 50.0 mg/kg/injection, schedule: Q04DX003 (ip), vehicle: gum acacia 98 % of control | dose: 100.0 mg/kg/injection, schedule: Q01DX001 (ip), vehicle: gum acacia 92 % of control | dose: 100.0 mg/kg/injection, schedule: Q01DX009 (ip), vehicle: gum acacia 94 % of control | dose: 100.0 mg/kg/injection, schedule: Q04DX003 (ip), vehicle: gum acacia 102 % of control

Cc1ccc(S(=O)(=O)N2CCc3ccccc3C3(C2)OCCO3)cc1
inactive: dose: 100.0 mg/kg/injection, schedule: Q01DX001 (ip), vehicle: carboxymethylcellulose (CMC) 96 % of control | [4] 96 % of control | [5] 98 % of control

Cc1cc2c3ccccc3c3ccccc3c2nn1
inactive: [1] 103 % of control | [2] 101 % of control | [3] 100 % of control

CC1(C)CC[N+]1(C)Cc1ccccc1 (stereo not given)
inactive: dose: 6.25 mg/kg/injection, schedule: Q01DX009 (ip), vehicle: saline 95 % of control | dose: 6.25 mg/kg/injection, schedule: Q04DX003 (ip), vehicle: saline 90 % of control | dose: 12.0 mg/kg/injection, schedule: Q01DX001 (ip), vehicle: saline 102 % of control | dose: 12.5 mg/kg/injection, schedule: Q01DX009 (ip), vehicle: saline 109 % of control | dose: 12.5 mg/kg/injection, schedule: Q04DX003 (ip), vehicle: saline 101 % of control | dose: 25.0 mg/kg/injection, schedule: Q01DX001 (ip), vehicle: saline 97 % of control | dose: 25.0 mg/kg/injection, schedule: Q01DX009 (ip), vehicle: saline 97 % of control | dose: 25.0 mg/kg/injection, schedule: Q04DX003 (ip), vehicle: saline 91 % of control

Cc1cccc(NC(=O)NCC(=O)NNC(=O)Nc2cc([N+](=O)[O-])ccc2C)n1
inactive: dose: 50.0 mg/kg/injection, schedule: Q01DX009 (ip), vehicle: Klucel (hydroxypropylcellulose) (HPC) 100 % of control | dose: 100.0 mg/kg/injection, schedule: Q01DX009 (ip), vehicle: Klucel (hydroxypropylcellulose) (HPC) 89 % of control | dose: 200.0 mg/kg/injection, schedule: Q01DX009 (ip), vehicle: Klucel (hydroxypropylcellulose) (HPC) 88 % of control

COC(=O)CCC(NC(=O)OCc1ccccc1)C(=O)O (stereo not given)
inactive: [14] 99 % of control | [15] 112 % of control

O/N=C(/C(=N/O)c1ccccc1)c1ccccc1.O/N=C(/C(=N/O)c1ccccc1)c1ccccc1.[Cl][Rh][Cl]
inactive: dose: 50.0 mg/kg/injection, schedule: Q01DX009 (ip), vehicle: saline 94 % of control | dose: 50.0 mg/kg/injection, schedule: Q04DX003 (ip), vehicle: saline 95 % of control | dose: 100.0 mg/kg/injection, schedule: Q01DX009 (ip), vehicle: saline 89 % of control | [11] 95 % of control | dose: 200.0 mg/kg/injection, schedule: Q01DX009 (ip), vehicle: saline 95 % of control | [12] 94 % of control | dose: 400.0 mg/kg/injection, schedule: Q01DX009 (ip), vehicle: saline 97 % of control | [13] 94 % of control

Cc1ccc(-n2c(O)c(N=Nc3ccccc3C)c(=O)n(-c3ccc(I)cc3)c2=S)cc1
inactive: dose: 37.5 mg/kg/injection, schedule: Q01DX001 (ip), vehicle: Klucel (hydroxypropylcellulose) (HPC) 101 % of control | dose: 75.0 mg/kg/injection, schedule: Q01DX001 (ip), vehicle: Klucel (hydroxypropylcellulose) (HPC) 108 % of control | dose: 150.0 mg/kg/injection, schedule: Q01DX001 (ip), vehicle: Klucel (hydroxypropylcellulose) (HPC) 92 % of control
